Assay results taken from US12415803B2, “Fused imidazopyridines as reversible inhibitors of Brutons Tyrosine Kinase (BTK)” (Merck Patent GmbH, priority 2018, dated 2025).

Tests used:
[1] = biological target: Btk (Homo sapiens (Human), UniProt Q06187); test: Btk PBMC IC50 Cell Assay (anti-IgM-induced CD69 expression on B cells); format: cell-based; settings: anti-IgM-induced CD69 expression on CD19 positive cells in human PBMCs;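 further: freshly isolated human PBMCs, IC50 from concentration-response of the share of CD19+ cells expressing CD69 after anti-IgM BCR stimulation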
[2] = biological target: full-length human BTK (Homo sapiens (Human), UniProt Q06187); test: BTK IC50 Enzyme Assay (microfluidic off-chip mobility shift kinase assay); format: biochemical; settings: Btk Enzymatic IC50 Assay, 90 min at 27 C;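 further: Read-out separates phosphorylated peptide product from substrate by their charge-to-mass difference, with IC50 fitted from log inhibitor concentration against percent enzyme activity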
full-length human BTK, sequence (Q06187 whole entry): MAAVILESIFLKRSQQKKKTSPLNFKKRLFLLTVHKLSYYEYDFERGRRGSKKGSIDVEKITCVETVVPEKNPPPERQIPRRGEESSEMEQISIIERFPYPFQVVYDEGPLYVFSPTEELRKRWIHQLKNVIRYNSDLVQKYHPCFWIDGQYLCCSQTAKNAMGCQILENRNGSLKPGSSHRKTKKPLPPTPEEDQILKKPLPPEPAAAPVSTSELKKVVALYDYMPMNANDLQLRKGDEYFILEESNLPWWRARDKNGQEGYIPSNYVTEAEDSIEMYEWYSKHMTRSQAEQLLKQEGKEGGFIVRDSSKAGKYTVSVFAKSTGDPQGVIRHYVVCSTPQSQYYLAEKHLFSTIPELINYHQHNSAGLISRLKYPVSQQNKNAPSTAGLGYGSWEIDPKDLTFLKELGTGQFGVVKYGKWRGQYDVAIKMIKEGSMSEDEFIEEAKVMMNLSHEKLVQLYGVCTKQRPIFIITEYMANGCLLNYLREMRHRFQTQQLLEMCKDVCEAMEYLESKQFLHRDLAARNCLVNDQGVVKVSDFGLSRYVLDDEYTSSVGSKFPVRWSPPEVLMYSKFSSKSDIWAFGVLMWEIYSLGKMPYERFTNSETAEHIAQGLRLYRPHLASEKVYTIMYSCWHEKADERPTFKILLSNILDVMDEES

Btk, sequence (Q06187 whole entry): as above

| Structure (SMILES) | IC50 [1] [nM] | IC50 [2] [nM] |
| --- | --- | --- |
| Cc1c(-c2nc3c(-c4ccc5c(c4)CCCC5NC(=O)N4CC(OC(C)(C)C)C4)ccnc3[nH]2)cnn1C(C)C (centres unmarked) [Compound 145, 3-tert-Butoxy-azetidine-1-carboxylic acid {6-[2-(1-isopropyl-5-methyl-1H-pyrazol-4-yl)-3H-imidazo[4,5-b]pyridin-7-yl]-1,2,3,4-tetrahydro-naphthalen-1-yl}-amide] | 10 to 100 | < 1 |
| Cc1nn(C(C)C)cc1-c1nc2c(-c3ccc4c(c3)CCCC[C@H]4NC(=O)c3nc(C4(C)CC4)no3)ccnc2[nH]1 [Compound 59, 3-(1-Methyl-cyclopropyl)-[1,2,4]oxadiazole-5-carboxylic acid {(R)-2-[2-(1-isopropyl-3-methyl-1H-pyrazol-4-yl)-3H-imidazo[4,5-b]pyridin-7-yl]-6,7,8,9-tetrahydro-5H-benzocyclohepten-5-yl}-amide] | 1 to 10 | < 1 |
| Cc1nn(C(C)C)cc1-c1nc2c(-c3ccc4c(c3)CCCC[C@H]4NC(=O)c3noc(C(C)(C)C)n3)ccnc2[nH]1 [Compound 61, 5-tert-Butyl-[1,2,4]oxadiazole-3-carboxylic acid {(R)-2-[2-(1-isopropyl-3-methyl-1H-pyrazol-4-yl)-3H-imidazo[4,5-b]pyridin-7-yl]-6,7,8,9-tetrahydro-5H-benzocyclohepten-5-yl}-amide] | 1 to 10 | < 1 |
| Cc1nn(C)c(C)c1-c1nc2c(-c3ccc4c(c3)CCCCC4NC(=O)c3noc(C(C)(C)C)n3)ccnc2[nH]1 (centres unmarked) [Compound 8, 5-tert-Butyl-[1,2,4]oxadiazole-3-carboxylic acid {2-[2-(1,3,5-trimethyl-1H-pyrazol-4-yl)-3H-imidazo[4,5-b]pyridin-7-yl]-6,7,8,9-tetrahydro-5H-benzocyclohepten-5-yl}-amide] | 1 to 10 | < 1 |
| Cc1nn(C(C)C)c(C)c1-c1nc2c(-c3ccc4c(c3)CCCCC4NC(=O)c3noc(C4(C)CC4)n3)ccnc2[nH]1 (centres unmarked) [Compound 32, 5-(1-Methyl-cyclopropyl)-[1,2,4]oxadiazole-3-carboxylic acid {2-[2-(1-isopropyl-3,5-dimethyl-1H-pyrazol-4-yl)-3H-imidazo[4,5-b]pyridin-7-yl]-6,7,8,9-tetrahydro-5H-benzocyclohepten-5-yl}-amide] | 1 to 10 | < 1 |
| Cc1c(-c2nc3c(-c4ccc5c(c4)CCCC[C@@H]5NC(=O)c4noc(C5(C)CC5)n4)ccnc3[nH]2)cnn1C(C)C [Compound 25, 5-(1-Methyl-cyclopropyl)-[1,2,4]oxadiazole-3-carboxylic acid {(S)-2-[2-(1-isopropyl-5-methyl-1H-pyrazol-4-yl)-3H-imidazo[4,5-b]pyridin-7-yl]-6,7,8,9-tetrahydro-5H-benzocyclohepten-5-yl}-amide] | 10 to 100 | 1 to 10 |
| Cc1c(-c2nc3nccc(-c4ccc5c(c4)CCCC[C@@H]5NC(=O)c4nnc(C(C)(C)C)o4)c3[nH]2)cnn1C1CCOCC1 [Compound 80, 5-tert-butyl-N-[(5S)-2-{2-[5-methyl-1-(oxan-4-yl)-1H-pyrazol-4-yl]-1H-imidazo[4,5-b]pyridin-7-yl}-6,7,8,9-tetrahydro-5H-benzo[7]annulen-5-yl]-1,3,4-oxadiazole-2-carboxamide] | > 100 | 1 to 10 |
| Cc1nn(C)c(C)c1-c1nc2c(-c3ccc4c(c3)OCCC[C@H]4NC(=O)c3nnc(C(C)(C)C)o3)ccnc2[nH]1 [Compound 18, 5-tert-Butyl-[1,3,4]oxadiazole-2-carboxylic acid {(R)-8-[2-(1,3,5-trimethyl-1H-pyrazol-4-yl)-3H-imidazo[4,5-b]pyridin-7-yl]-2,3,4,5-tetrahydro-benzo[b]oxepin-5-yl}-amide] | > 100 | > 100 |
| Cc1nn(C(C)C)c(C)c1-c1nc2c(-c3ccc4c(c3)CCCC[C@H]4NC(=O)c3noc(C(C)(C)C)n3)ccnc2[nH]1 [Compound 30, 5-tert-Butyl-[1,2,4]oxadiazole-3-carboxylic acid {(R)-2-[2-(1-isopropyl-3,5-dimethyl-1H-pyrazol-4-yl)-3H-imidazo[4,5-b]pyridin-7-yl]-6,7,8,9-tetrahydro-5H-benzocyclohepten-5-yl}-amide] | 1 to 10 | < 1 |
| Cc1c(-c2nc3c(-c4ccc5c(c4)CCC[C@@H]5NC(=O)c4noc(C5(C)CC5)n4)ccnc3[nH]2)cnn1C1CCOCC1 [Compound 163, 5-(1-Methyl-cyclopropyl)-[1,2,4]oxadiazole-3-carboxylic acid ((S)-6-{2-[5-methyl-1-(tetrahydro-pyran-4-yl)-1H-pyrazol-4-yl]-3H-imidazo[4,5-b]pyridin-7-yl}-1,2,3,4-tetrahydro-naphthalen-1-yl)-amide] | 1 to 10 | < 1 |
| Cc1nn(C(C)C)c(C)c1-c1nc2c(-c3ccc4c(c3)CCCCC4NC(=O)c3noc(C(C)(C)C)n3)ccnc2[nH]1 (centres unmarked) [Compound 29, 5-tert-Butyl-[1,2,4]oxadiazole-3-carboxylic acid {2-[2-(1-isopropyl-3,5-dimethyl-1H-pyrazol-4-yl)-3H-imidazo[4,5-b]pyridin-7-yl]-6,7,8,9-tetrahydro-5H-benzocyclohepten-5-yl}-amide] | 1 to 10 | < 1 |
| Cc1nn(C)c(C)c1-c1nc2c(-c3ccc4c(c3)OCCC[C@H]4NC(=O)c3noc(C(C)(C)C)n3)ccnc2[nH]1 [Compound 15, 5-tert-Butyl-[1,2,4]oxadiazole-3-carboxylic acid {(R)-8-[2-(1,3,5-trimethyl-1H-pyrazol-4-yl)-3H-imidazo[4,5-b]pyridin-7-yl]-2,3,4,5-tetrahydro-benzo[b]oxepin-5-yl}-amide] | > 100 | 1 to 10 |
| Cc1nn(C)c(C)c1-c1nc2c(-c3ccc4c(c3)CCCC[C@@H]4NC(=O)c3noc(C(C)(C)C)n3)ccnc2[nH]1 [Compound 10, 5-tert-Butyl-[1,2,4]oxadiazole-3-carboxylic acid {(S)-2-[2-(1,3,5-trimethyl-1H-pyrazol-4-yl)-3H-imidazo[4,5-b]pyridin-7-yl]-6,7,8,9-tetrahydro-5H-benzocyclohepten-5-yl}-amide] | 1 to 10 | < 1 |
| Cn1cc(-c2nc3nccc(-c4ccc5c(c4)CCCC[C@H]5NC(=O)N4CC(OC(C)(C)C)C4)c3[nH]2)cn1 [Compound 50, 3-tert-Butoxy-azetidine-1-carboxylic acid {(R)-2-[2-(1-methyl-1H-pyrazol-4-yl)-3H-imidazo[4,5-b]pyridin-7-yl]-6,7,8,9-tetrahydro-5H-benzocyclohepten-5-yl}-amide] | > 100 | 1 to 10 |

The next lines start with the values.

| IC50 [1] [nM] | IC50 [2] [nM] | Structure (SMILES) |
| --- | --- | --- |
| > 100 | 1 to 10 | Cc1c(-c2nc3c(-c4ccc5c(c4)CCCC[C@H]5NC(=O)c4nc(C(C)(C)C)no4)ccnc3[nH]2)cnn1C(C)C [Compound 161, 3-tert-Butyl-[1,2,4]oxadiazole-5-carboxylic acid {(R)-2-[2-(1-isopropyl-5-methyl-1H-pyrazol-4-yl)-3H-imidazo[4,5-b]pyridin-7-yl]-6,7,8,9-tetrahydro-5H-benzocyclohepten-5-yl}-amide] |
| 1 to 10 | < 1 | CC(C)(C)c1noc(C(=O)N[C@@H]2CCCc3cc(-c4ccnc5[nH]c(-c6cnn(C7CC7)c6)nc45)ccc32)n1 [Compound 75, 3-tert-butyl-N-[(1R)-6-[2-(1-cyclopropyl-1H-pyrazol-4-yl)-3H-imidazo[4,5-b]pyridin-7-yl]-1,2,3,4-tetrahydronaphthalen-1-yl]-1,2,4-oxadiazole-5-carboxamide] |
| 10 to 100 | 1 to 10 | Cn1cc(-c2nc3c(-c4ccc5c(c4)CCCC[C@@H]5NC(=O)c4noc(C5(C)CC5)n4)ccnc3[nH]2)cn1 [Compound 55, 5-(1-Methyl-cyclopropyl)-[1,2,4]oxadiazole-3-carboxylic acid {(S)-2-[2-(1-methyl-1H-pyrazol-4-yl)-3H-imidazo[4,5-b]pyridin-7-yl]-6,7,8,9-tetrahydro-5H-benzocyclohepten-5-yl}-amide] |
| > 100 | 1 to 10 | Cc1nn(C)c(C)c1-c1nc2c(-c3ccc4c(c3)CCCC[C@@H]4NC(=O)c3nnc(C(C)(C)C)o3)ccnc2[nH]1 [Compound 122, 5-tert-Butyl-[1,3,4]oxadiazole-2-carboxylic acid {(S)-2-[2-(1,3,5-trimethyl-1H-pyrazol-4-yl)-3H-imidazo[4,5-b]pyridin-7-yl]-6,7,8,9-tetrahydro-5H-benzocyclohepten-5-yl}-amide] |
| 10 to 100 | 1 to 10 | Cc1c(-c2nc3c(-c4ccc5c(c4)CCCC[C@@H]5NC(=O)c4noc(C(C)(C)C)n4)ccnc3[nH]2)cnn1C(C)C [Compound 22, 5-tert-Butyl-[1,2,4]oxadiazole-3-carboxylic acid {(S)-2-[2-(1-isopropyl-5-methyl-1H-pyrazol-4-yl)-3H-imidazo[4,5-b]pyridin-7-yl]-6,7,8,9-tetrahydro-5H-benzocyclohepten-5-yl}-amide] |
| 1 to 10 | < 1 | Cn1cc(-c2nc3c(-c4ccc5c(c4)CCCCC5NC(=O)c4nnc(C(C)(C)C)o4)ccnc3[nH]2)cn1 (centres unmarked) [Compound 42, 5-tert-Butyl-[1,3,4]oxadiazole-2-carboxylic acid {2-[2-(1-methyl-1H-pyrazol-4-yl)-3H-imidazo[4,5-b]pyridin-7-yl]-6,7,8,9-tetrahydro-5H-benzocyclohepten-5-yl}-amide] |
| 10 to 100 | 1 to 10 | Cn1cc(-c2nc3c(-c4ccc5c(c4)OCCC[C@@H]5NC(=O)c4noc(C(C)(C)C)n4)ccnc3[nH]2)cn1 [Compound 47, 5-tert-Butyl-[1,2,4]oxadiazole-3-carboxylic acid {(S)-8-[2-(1-methyl-1H-pyrazol-4-yl)-3H-imidazo[4,5-b]pyridin-7-yl]-2,3,4,5-tetrahydro-benzo[b]oxepin-5-yl}-amide] |
| 1 to 10 | < 1 | Cn1cc(-c2nc3c(-c4ccc5c(c4)CCCC[C@H]5NC(=O)c4noc(C(C)(C)C)n4)ccnc3[nH]2)cn1 [Compound 52, 5-tert-Butyl-[1,2,4]oxadiazole-3-carboxylic acid {(R)-2-[2-(1-methyl-1H-pyrazol-4-yl)-3H-imidazo[4,5-b]pyridin-7-yl]-6,7,8,9-tetrahydro-5H-benzocyclohepten-5-yl}-amide] |
